Reference: ChEMBL document CHEMBL1201862, “PubChem BioAssay data set” (2004)
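Test compounds were applied to cells in 96-well plates for 48 hours at 5 doses. At the GI50, growth is halved.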 Activity calls are given as the source filed them. Cut-off read from the data, not from the text of the source: active = GI50 up to about 1.1 µM and inactive = higher.

Key:
Experiment in all cases: NCI-60 cell line screen, 48 h
ACHN = test system: ACHN
HOP-92 = test system: HOP-92
786-0 = test system: 786-0
K562 = test system: K562
MDA-N = test system: MDA-N
LOX IMVI = test system: LOX IMVI
T47D = test system: T47D
HL-60 = test system: HL-60
RPMI-8226 = test system: RPMI-8226
SK-MEL-2 = test system: SK-MEL-2
COLO 205 = test system: COLO 205
OVCAR-8 = test system: OVCAR-8
OVCAR-4 = test system: OVCAR-4
OVCAR-3 = test system: OVCAR-3
HOP-62 = test system: HOP-62
DU-145 = test system: DU-145
PC-3 = test system: PC-3
SK-MEL-5 = test system: SK-MEL-5
CCRF-CEM = test system: CCRF-CEM
UO-31 = test system: UO-31

Row | Compound | GI50 (ACHN) | GI50 (HOP-92) | GI50 (786-0) | GI50 (K562) | GI50 (MDA-N) | GI50 (LOX IMVI) | GI50 (T47D) | GI50 (HL-60) | GI50 (RPMI-8226) | GI50 (SK-MEL-2) | GI50 (COLO 205) | GI50 (OVCAR-8) | GI50 (OVCAR-4) | GI50 (OVCAR-3) | GI50 (HOP-62) | GI50 (DU-145) | GI50 (PC-3) | GI50 (SK-MEL-5) | GI50 (CCRF-CEM) | GI50 (UO-31)
1 | CC(=O)CC(=O)Nc1ccc2ccccc2c1 | > 100 µM (inactive) | > 100 µM (inactive) | > 100 µM (inactive) | 46.9 µM (inactive) | > 100 µM (inactive) | > 100 µM (inactive) | 40.2 µM (inactive) | > 100 µM (inactive) | 45.6 µM (inactive) | > 100 µM (inactive) | 35.5 µM (inactive) | > 100 µM (inactive) | 29.4 µM (inactive) | 34.6 µM (inactive) | > 100 µM (inactive) | > 100 µM (inactive) | > 100 µM (inactive) | 72.4 µM (inactive) | 36.8 µM (inactive) | 
2 | CC1(C)N/C(=C\[N+](=O)[O-])C(C)(C)N1O | > 10 µM (inactive) | > 10 µM (inactive) | > 10 µM (inactive) |  | > 10 µM (inactive) | > 10 µM (inactive) | > 10 µM (inactive) | > 10 µM (inactive) | > 10 µM (inactive) | > 10 µM (inactive) | > 10 µM (inactive) | > 10 µM (inactive) | > 10 µM (inactive) | > 10 µM (inactive) | > 10 µM (inactive) | > 10 µM (inactive) | > 10 µM (inactive) | > 10 µM (inactive) | > 10 µM (inactive) | 
3 | C/C=C1/CN2CCC34C(=C(C(=O)OC)C1CC23)Nc1ccc(O)cc14 (stereo not given) | > 100 µM (inactive) | > 100 µM (inactive) | 59.3 µM (inactive) |  | > 100 µM (inactive) | > 100 µM (inactive) | > 100 µM (inactive) | > 100 µM (inactive) | > 100 µM (inactive) | > 100 µM (inactive) | > 100 µM (inactive) | > 100 µM (inactive) | > 100 µM (inactive) | > 100 µM (inactive) |  | > 100 µM (inactive) | > 100 µM (inactive) | > 100 µM (inactive) | > 100 µM (inactive) | > 100 µM (inactive)
4 | O=C(O)c1cc2ccccc2c(Cc2c(O)c(C(=O)O)cc3ccccc23)c1O [PAMOIC ACID] | > 100 µM (inactive) | > 100 µM (inactive) | > 100 µM (inactive) | > 100 µM (inactive) | > 100 µM (inactive) | > 100 µM (inactive) | > 100 µM (inactive) | > 100 µM (inactive) | > 100 µM (inactive) | > 100 µM (inactive) |  | > 100 µM (inactive) | > 100 µM (inactive) | > 100 µM (inactive) | > 100 µM (inactive) | > 100 µM (inactive) | > 100 µM (inactive) | > 100 µM (inactive) | > 100 µM (inactive) | > 100 µM (inactive)
5 | O=C(CCCN1CCc2[nH]c3cc(F)ccc3c2C1)c1ccc(F)cc1 | 13.8 µM (inactive) | 2.26 µM (inactive) | 13.5 µM (inactive) | 5.71 µM (inactive) | 15.7 µM (inactive) | 3.95 µM (inactive) | 18.9 µM (inactive) | 11.1 µM (inactive) | 10 µM (inactive) | 18 µM (inactive) | 4.84 µM (inactive) | 15.1 µM (inactive) | 13.8 µM (inactive) | 14.2 µM (inactive) | 16.1 µM (inactive) | 13.3 µM (inactive) | 12.9 µM (inactive) | 17.1 µM (inactive) | 12 µM (inactive) | 
6 | CN(C)CCNC(=O)c1cc(-c2nccn2C)nc2ccccc12 | 58.3 µM (inactive) | 64.7 µM (inactive) | > 100 µM (inactive) | > 100 µM (inactive) | > 100 µM (inactive) | > 100 µM (inactive) | > 100 µM (inactive) | > 100 µM (inactive) | > 100 µM (inactive) | > 100 µM (inactive) | > 100 µM (inactive) | > 100 µM (inactive) |  |  | 50.8 µM (inactive) | > 100 µM (inactive) | > 100 µM (inactive) | > 100 µM (inactive) | > 100 µM (inactive) | 52.8 µM (inactive)
7 | CC(C)(C)c1ccc2c(c1)C(=O)c1ccccc1C2=O | 37.9 µM (inactive) | 15.5 µM (inactive) | > 100 µM (inactive) | 58.1 µM (inactive) | 37.5 µM (inactive) | 41.4 µM (inactive) | > 100 µM (inactive) | 64.6 µM (inactive) | 31.3 µM (inactive) |  | 25 µM (inactive) | 44.5 µM (inactive) | 33.6 µM (inactive) | > 100 µM (inactive) | > 100 µM (inactive) | > 100 µM (inactive) | 37.7 µM (inactive) | 18.1 µM (inactive) | 57.1 µM (inactive) | > 100 µM (inactive)
8 | C=C1CN(C(=O)c2cc3cc(OC)c(OC)c(OC)c3[nH]2)c2cc([N+](=O)[O-])ccc21 |  | 33.8 µM (inactive) | 30.5 µM (inactive) | > 100 µM (inactive) | > 100 µM (inactive) | > 100 µM (inactive) | > 100 µM (inactive) | > 100 µM (inactive) | > 100 µM (inactive) | 34.8 µM (inactive) | > 100 µM (inactive) | > 100 µM (inactive) | > 100 µM (inactive) | > 100 µM (inactive) |  | > 100 µM (inactive) | > 100 µM (inactive) | > 100 µM (inactive) |  | > 100 µM (inactive)
9 | CCO/N=C(/CC)c1ccc(Br)s1 | > 100 µM (inactive) | > 100 µM (inactive) | > 100 µM (inactive) | > 100 µM (inactive) | > 100 µM (inactive) | 80.5 µM (inactive) | > 100 µM (inactive) | 33 µM (inactive) |  | > 100 µM (inactive) | > 100 µM (inactive) | > 100 µM (inactive) | > 100 µM (inactive) | > 100 µM (inactive) | > 100 µM (inactive) | > 100 µM (inactive) | > 100 µM (inactive) | > 100 µM (inactive) | > 100 µM (inactive) | > 100 µM (inactive)
10 | Oc1c(Cl)ccc2cccnc12 | 3.61 µM (inactive) | < 0.01 µM (active) | 6.18 µM (inactive) | 1.32 µM (inactive) | 16.6 µM (inactive) | 1.94 µM (inactive) | 1.2 µM (inactive) | 0.28 µM (active) | 2.71 µM (inactive) |  | 4.25 µM (inactive) | 2.63 µM (inactive) | 3.21 µM (inactive) | 2.09 µM (inactive) | 3.75 µM (inactive) | 9.73 µM (inactive) | 4.71 µM (inactive) | 3.42 µM (inactive) | 0.347 µM (active) | 3.35 µM (inactive)
11 | O=C1/C(=C/c2ccc(OC(=O)c3ccccc3)cc2)CCC/C1=C\c1ccc(OC(=O)c2ccccc2)cc1 | > 100 µM (inactive) | > 100 µM (inactive) | > 100 µM (inactive) |  | > 100 µM (inactive) | > 100 µM (inactive) | > 100 µM (inactive) | > 100 µM (inactive) | > 100 µM (inactive) | > 100 µM (inactive) | > 100 µM (inactive) | > 100 µM (inactive) | > 100 µM (inactive) | > 100 µM (inactive) | > 100 µM (inactive) | > 100 µM (inactive) | > 100 µM (inactive) | > 100 µM (inactive) | > 100 µM (inactive) | > 100 µM (inactive)
12 | CC(=O)Nc1ccc2c(c1)/C(=N/c1ccc(C(=O)O)cc1)c1ccccc1-2 | > 100 µM (inactive) | 37.9 µM (inactive) | > 100 µM (inactive) | 63.1 µM (inactive) | > 100 µM (inactive) | 50.9 µM (inactive) | 28 µM (inactive) | < 0.01 µM (active) | 36 µM (inactive) |  | 57.3 µM (inactive) | 76.7 µM (inactive) | 41 µM (inactive) | 99.8 µM (inactive) | 86.1 µM (inactive) | > 100 µM (inactive) | 83.6 µM (inactive) | 25.8 µM (inactive) | 26.4 µM (inactive) | 38.3 µM (inactive)
13 | COC(=O)C(C)(Cc1ccc2c(c1)nnn2C(C)=O)NC(C)=O (stereo not given) | > 100 µM (inactive) | > 100 µM (inactive) | > 100 µM (inactive) | > 100 µM (inactive) | > 100 µM (inactive) | > 100 µM (inactive) | > 100 µM (inactive) | > 100 µM (inactive) | > 100 µM (inactive) | > 100 µM (inactive) | > 100 µM (inactive) | > 100 µM (inactive) | > 100 µM (inactive) | > 100 µM (inactive) |  | > 100 µM (inactive) | > 100 µM (inactive) | > 100 µM (inactive) | > 100 µM (inactive) | > 100 µM (inactive)
14 | Cc1cc(NC[C@H](O)[C@H](O)[C@H](O)CO)c(Sc2cc(=O)[nH]c(=O)[nH]2)cc1C | > 62.5 µM (inactive) | > 62.5 µM (inactive) | > 62.5 µM (inactive) | > 62.5 µM (inactive) | > 62.5 µM (inactive) | > 62.5 µM (inactive) | > 62.5 µM (inactive) |  | > 62.5 µM (inactive) | > 62.5 µM (inactive) | > 62.5 µM (inactive) | > 62.5 µM (inactive) | > 62.5 µM (inactive) | > 62.5 µM (inactive) | > 62.5 µM (inactive) | > 62.5 µM (inactive) | > 62.5 µM (inactive) | > 62.5 µM (inactive) | > 62.5 µM (inactive) | > 62.5 µM (inactive)
15 | CCS(=O)(=O)CCn1cnc2c1c(=O)n(C)c(=O)n2C | > 100 µM (inactive) | > 100 µM (inactive) | > 100 µM (inactive) | > 100 µM (inactive) | > 100 µM (inactive) | > 100 µM (inactive) | > 100 µM (inactive) | > 100 µM (inactive) |  | > 100 µM (inactive) | > 100 µM (inactive) | > 100 µM (inactive) | > 100 µM (inactive) | > 100 µM (inactive) | > 100 µM (inactive) | > 100 µM (inactive) | > 100 µM (inactive) | > 100 µM (inactive) | > 100 µM (inactive) | > 100 µM (inactive)
